The test system of one assay is Candida albicans. To be noted: in vitro and in vivo; cited from earlier work.
The next assay relates to Candida albicans 3669. The experiment in a line: plate test procedure for anti-Candida activity, strain 3669. Format: cell-based. As to the method: (§1) Immunosuppressive activity was evaluated in an in vitro standard pharmacological test procedure to measure lymphocyte proliferation (LAF) and in an in vivo procedure to evaluate the survival time of a pinch skin graft. Antifungal activity was determined against five strains of Candida albicans.
(§2) Antifungal activity of the compounds of this invention is measured against 5 strains of Candida albicans using a plate test procedure for measurement of inhibition. The following represents the typical procedure used. The compound to be tested is placed on sterile dried 1/4" plate disks, and allowed to dry. Agar plates are seeded with fungi and allowed to solidify. The impregnated disks are placed on the seeded Agar surface and incubated for the time required for the particular culture. Results shown in Table II are expressed in Minimum Inhibitory Concentration (MIC) (μg/ml) to inhibit growth.

For assay [1], the system named is experimental allergic encephalomyelitis model, a model for multiple sclerosis. Conditions: in vivo; cited from earlier work.
Assay [2] deals with Candida albicans ATCC 38247. The assay is described as follows: plate test procedure for anti-Candida activity, strain ATCC 38247. Format: cell-based. As to the method:
as §1, §2

Assay [3] concerns adjuvant arthritis model, a model for rheumatoid arthritis. To be noted: in vivo; cited from earlier work.
Assay [4] relates to Candida albicans ATCC 38248. The experiment in a line: plate test procedure for anti-Candida activity, strain ATCC 38248. Format: cell-based. As for the experimental part:
as §1, §2

Assay [5] has as its system formation of IgE-like antibodies. To be noted: in vivo; cited from earlier work.
The subject of the next assay is transplant rejection. To be noted: cited from earlier work.
Assay [6] has as its system Candida albicans ATCC 10231. The experiment in a line: plate test procedure for anti-Candida activity, strain ATCC 10231. Format: cell-based. As for the experimental part:
as §1, §2

In assay [7] the test system is Candida albicans ATCC 38246. The experiment in a line: plate test procedure for anti-Candida activity, strain ATCC 38246. Format: cell-based. As to the method: as §1, §2
Another assay has as its system tumor. To be noted: alone or in combination with picibanil; cited from earlier work.
In assay [8] the test system is pinch skin graft (allograft). The experiment in a line: in vivo pinch skin graft survival (Skin Graft Model). More on the design: species or system mice: male BALB/c donors, male C3 H recipients. Conditions: intraperitoneally once daily for 6 consecutive days; mean ± S.D.; dose not given. As to the method:
as §1
(§3) Immunosuppressive activity was evaluated in an in vitro standard pharmacological test procedure to measure lymphocyte proliferation (LAF) and in one in vivo standard pharmacological test procedure to evaluate the survival time of a pinch skin graft.
The in vivo test procedure is designed to determine the survival time of pinch skin graft from male BALB/c donors transplanted to male C3 H recipients. The method is adapted from Billingham R. E. and Medawar P. B., J. Exp. Biol. 28:385-402, (1951). Briefly, a pinch skin graft from the donor is grafted on the dorsum of the recipient as a allograft, and an isograft is used as control in the same region. The recipients are treated with the test compound, intraperitoneally once daily for 6 consecutive days. Untreated recipients serve as rejection control. The graft is monitored daily and observations are recorded until the graft becomes 95% area necrosis or the suture line is off. This is considered as the rejection day. The graft survival time is one day before the rejection day. The mean graft survival time (number of days ±S.D.) of the drug treatment group is compared with the control group.

Assay [9] relates to thymocyte proliferation (lymphocyte proliferation, LAF). The experiment in a line: comitogen-induced thymocyte proliferation procedure (LAF). To be noted: Mus musculus, 72 h, mouse thymocytes, 72 hours with PHA and IL-1, test compound (Analogs). Format: cell-based, normal BALB/c mice. As for the experimental part:
as §1, §3
The comitogen-induced thymocyte proliferation procedure (LAF) was used as an in vitro measure of the immunosuppressive effects of representative compounds. Briefly, cells from the thymus of normal BALB/c mice were cultured for 72 hours with PHA and IL-1 and pulsed with tritiated thymidine during the last six hours. Cell are cultured with and without various concentrations of rapamycin, cyclosporin A, or test compound. Cells are harvested and incorporated; radiactivity is determined. Inhibition of lymphoproliferation is assessed in percent change in counts per minute from non-drug treated controls. The results are expressed by the following ratio: [formula] or as percent inhibition or IC50.

The subject of the next assay is fungi. Conditions: cited from earlier work.
Setting [10] is: Candida albicans 3669, plate test, read-out: Minimal Inhibitory Concentration (MIC), 3669.
The mark [11] stands for this setting: ATCC38247, Candida albicans ATCC 38247, plate test, read-out: Minimal Inhibitory Concentration (MIC), ATCC 38247.
Where [12] appears, read: ATCC38248, Candida albicans ATCC 38248, plate test, read-out: Minimal Inhibitory Concentration (MIC), ATCC 38248.
Setting [13] is: ATCC10231, Candida albicans ATCC 10231, plate test, read-out: Minimal Inhibitory Concentration (MIC), ATCC 10231.
The mark [14] stands for this setting: ATCC38246, Candida albicans ATCC 38246, plate test, read-out: Minimal Inhibitory Concentration (MIC), ATCC 38246.

pIC50: −log10 of the molar value. Values after ≈ are worked out from the molar mass of the structure shown. Read-outs that look alike come from different tables or passages of the source.

As for `CO[C@H]1C[C@@H]2CC[C@@H](C)[C@@](O)(O2)C(=O)C(=O)N2CCCC[C@H]2C(=O)O[C@H]([C@H](C)C[C@@H]2CC[C@@H](O)[C@H](OC)C2)CC(=O)[C@H](C)/C=C(\C)[C@@H](O)[C@@H](OC)C(=O)[C@H](C)C[C@H](C)/C=C/C=C/C=C/1C` [Rapamycin], in the assay with Candida albicans, the antifungal activity entry is “antifungal activity, particularly against Candida albicans, both in vitro and in vivo”. Further, the MIC was found to be 0.025 µg/mL (≈ 0.0273 µM) in the assay on Candida albicans 3669 (Candida albicans, 3669, read-out: Minimal Inhibitory Concentration (MIC), 3669); 0.003 µg/mL (≈ 0.00328 µM) in [2] (Candida albicans, ATCC38247, read-out: Minimal Inhibitory Concentration (MIC), ATCC 38247); 0.006 µg/mL (≈ 0.00656 µM) in assay [4] (Candida albicans, ATCC38248, read-out: Minimal Inhibitory Concentration (MIC), ATCC 38248); 0.003 µg/mL (≈ 0.00328 µM) in assay [6] (Candida albicans, ATCC10231, read-out: Minimal Inhibitory Concentration (MIC), ATCC 10231); 0.025 µg/mL (≈ 0.0273 µM) in assay [7] (Candida albicans, ATCC38246, read-out: Minimal Inhibitory Concentration (MIC), ATCC 38246). Besides, in assay [1], the “effect in experimental allergic encephalomyelitis model” value was “effective”. Moreover, in [3], the “effect in adjuvant arthritis model” value is given as “effective”. In addition, the “inhibition of formation of IgE-like antibodies” value in [5] is “effectively inhibited the formation of IgE-like antibodies”. The “inhibition of transplant rejection / immunosuppressive effect” value in the assay on transplant rejection is on record as “effective in inhibiting transplant rejection”. Besides, in the assay with tumor, the antitumor activity entry is “shown to have antitumor activity”. In addition, the “Skin Graft Model (Survival time days)” value in assay [8] is reported as greater than 12.0 days.
Consider `CO[C@H]1C[C@@H]2CC[C@@H](C)[C@@](O)(O2)C(=O)C(=O)N2CCCC[C@H]2C(=O)O[C@H]([C@H](C)C[C@@H]2CC[C@@H](OC(=O)NC(=O)c3ccccc3)[C@H](OC)C2)CC(=O)[C@H](C)/C=C(\C)[C@@H](OC(=O)NC(=O)c2ccccc2)[C@@H](OC)C(=O)[C@H](C)C[C@H](C)/C=C/C=C/C=C/1C` [Example 3, Rapamycin 31,42 diester with benzoylcarbamic acid], for which the pIC50 in assay [9] is 8.92.
For 33-desmethylrapamycin, the “antifungal and immunosuppressant activities” value in the assay on fungi was “antifungal and immunosuppressant activities”.
In the case of `COC(=O)NC(=O)O[C@@H]1CC[C@@H](C[C@@H](C)[C@@H]2CC(=O)[C@H](C)/C=C(\C)[C@@H](O)[C@@H](OC)C(=O)[C@H](C)C[C@H](C)/C=C/C=C/C=C(\C)[C@@H](OC)C[C@@H]3CC[C@@H](C)[C@@](O)(O3)C(=O)C(=O)N3CCCC[C@H]3C(=O)O2)C[C@H]1OC` [Example 4, Rapamycin 42-ester with N-methoxycarbonylcarbamic acid], the MIC in the assay with Candida albicans 3669 (setting [10]) turned out to be 0.2 µg/mL (≈ 0.197 µM); in assay [2] (setting [11]), 0.05 µg/mL (≈ 0.0492 µM); in [4] (setting [12]), 0.1 µg/mL (≈ 0.0985 µM); in assay [6] (setting [13]), 0.05 µg/mL (≈ 0.0492 µM); in [7] (setting [14]), 0.2 µg/mL (≈ 0.197 µM). The molecule further gave a pIC50 in [9] of 8.57. The “Skin Graft Model (Survival time days)” value in assay [8] was found to be 10.33 ± 0.52 days.
Regarding `CO[C@H]1C[C@@H]2CC[C@@H](C)[C@@](O)(O2)C(=O)C(=O)N2CCCC[C@H]2C(=O)O[C@H]([C@H](C)C[C@@H]2CC[C@@H](OC(=O)NC(=O)c3ccccc3)[C@H](OC)C2)CC(=O)[C@H](C)/C=C(\C)[C@@H](OC(=O)CN(C)C)[C@@H](OC)C(=O)[C@H](C)C[C@H](C)/C=C/C=C/C=C/1C` [Example 2, Rapamycin 31-ester with N,N-dimethylglycine, 42-ester with benzoylcarbamic acid], the MIC in the assay on Candida albicans 3669 (setting [10]) came to 0.4 µg/mL (≈ 0.349 µM); in assay [2] (setting [11]) it was 0.1 µg/mL (≈ 0.0872 µM); in assay [4] (setting [12]), 0.4 µg/mL (≈ 0.349 µM); in assay [6] (setting [13]) it was 0.1 µg/mL (≈ 0.0872 µM); in assay [7] (setting [14]) it was 0.4 µg/mL (≈ 0.349 µM). The pIC50 in assay [9] was 8.32. The “Skin Graft Model (Survival time days)” value in assay [8] is reported as 10.4 ± 0.55 days.
Consider `C=CC[C@@H]1/C=C(\C)C[C@H](C)C[C@H](OC)[C@H]2O[C@@](O)(C(=O)C(=O)N3CCCC[C@H]3C(=O)O[C@H](/C(C)=C/[C@@H]3CC[C@@H](O)[C@H](OC)C3)[C@H](C)[C@@H](O)CC1=O)[C@H](C)C[C@@H]2OC` [FK-506], for which the “inhibition of transplant rejection / immunosuppressive effect” value in the assay on transplant rejection is reported as “effective as immunosuppressive agents”.
Regarding Cyclosporin A, the “inhibition of transplant rejection / immunosuppressive effect” value with transplant rejection was “effective as immunosuppressive agents”.
For the molecule `CO[C@H]1C[C@@H]2CC[C@@H](C)[C@@](O)(O2)C(=O)C(=O)N2CCCC[C@H]2C(=O)O[C@H]([C@H](C)C[C@@H]2CC[C@@H](OC(=O)NC(=O)c3ccccc3)[C@H](OC)C2)CC(=O)[C@H](C)/C=C(\C)[C@@H](O)[C@@H](OC)C(=O)[C@H](C)C[C@H](C)/C=C/C=C/C=C/1C` [Example 1, Rapamycin 42-ester with benzoylcarbamic acid], the MIC with Candida albicans 3669 (setting [10]) is 0.1 µg/mL (≈ 0.0942 µM); in assay [2] (setting [11]) it was 0.05 µg/mL (≈ 0.0471 µM); in assay [4] (setting [12]), 0.1 µg/mL (≈ 0.0942 µM); in assay [6] (setting [13]) it was 0.05 µg/mL (≈ 0.0471 µM); in assay [7] (setting [14]) it was 0.1 µg/mL (≈ 0.0942 µM). The molecule also gave a negative-log IC50 (pIC50) in [9] of 8.85. Further, the “Skin Graft Model (Survival time days)” value in assay [8] turned out to be 10.5 ± 0.55 days.

The record behind these values is patent US5262423A, “Rapamycin arylcarbonyl and alkoxycarbonyl carbamates as immunosuppressive and antifungal agents” (American Home Products Corporation, priority 1992, dated 1993).
